The source made the active and inactive calls. The rule behind the calls is not given here.
Key:
Aorta [1] = test: Ex vivo antiangiogenic activity in Wistar rat aortic ring assessed as inhibition of angiogenesis at 100 uM after 7 days by phase-contrast microscopy; assay type: functional, tissue-based
Aorta [2] = test: Ex vivo antiangiogenic activity in Wistar rat aortic ring assessed as decrease of microvessel length at 100 uM after 7 days by phase-contrast microscopy; assay type: functional, tissue-based
Aorta [3] = test: Ex vivo antiangiogenic activity in Wistar rat aortic ring assessed as inhibition of angiogenesis after 7 days by phase-contrast microscopy; assay type: functional, tissue-based
HUVEC [4] = test: Inhibition of VEGF-induced HUVEC migration at 100 uM after 6 hrs by gelatin-coated Boyden chamber assay; assay type: functional, cell-based; details: Homo sapiens
Aorta [5] = test: Ex vivo antiangiogenic activity in Wistar rat aortic ring assessed as inhibition of angiogenesis at 50 uM after 7 days by phase-contrast microscopy; assay type: functional
HUVEC [6] = test: Antiangiogenic activity in HUVEC assessed as reduction of tube formation at 100 uM after 12 hrs by phase-contrast microscopy; assay type: functional, cell-based; details: Homo sapiens
HUVEC [7] = test: Antiproliferative activity against HUVEC at 5 to 100 uM after 72 hrs by WST-1 assay; assay type: functional, cell-based; details: Homo sapiens
[8] = Cytotoxicity against HDF; details: human
HCT-116 = test: Cytotoxicity against human HCT116 cells; assay type: functional

With `CCCCCCCC1=C(C)C(=O)c2ccccc2C1=O` the Activity (Aorta [1]) was “inactive” and the Activity (Aorta [2]) was “inactive”.
For `CCCCCCCCCCC1=C(C)C(=O)c2ccccc2C1=O`, the Activity (Aorta [1]) was “inactive” and the Activity (Aorta [2]) was “inactive”.
With `CC1=C(C2=C(C)C(=O)c3ccccc3C2=O)C(=O)c2ccccc2C1=O` the Activity (Aorta [1]) was “inactive”.
For `CNC1=C(C)C(=O)c2ccccc2C1=O`, the Activity (Aorta [1]) was “Active”.
For `CCC1=C(C)C(=O)c2ccccc2C1=O`, the Activity (Aorta [1]) was “Active”.
For `CCCCCCCCCNC1=C(C)C(=O)c2ccccc2C1=O`, the Activity (Aorta [1]) was “inactive” and the Activity (Aorta [2]) was “inactive”.
With `CC1=C(Br)C(=O)c2ccccc2C1=O` the Activity (Aorta [1]) was “Active”.
For `CCCCC1=C(C)C(=O)c2ccccc2C1=O`, the Activity (Aorta [1]) was “inactive” and the Activity (Aorta [2]) was “Active”.
For `CCCNC1=C(C)C(=O)c2ccccc2C1=O`, the Activity (Aorta [3]) was “Dose-dependent effect”, the inhibition (HUVEC [4]) was “inactive” and the Activity (Aorta [5]) was over 50 µM. The Activity (HUVEC [6]) was “Active”, the Activity (HUVEC [7]) was “Active” and the Activity (Aorta [1]) was “Active”. For the same compound, the Activity [8] was over 100 µM, the Activity (Aorta [2]) was “Active” and the Activity (HCT-116) was over 100 µM.
With `CCCCCCNC1=C(C)C(=O)c2ccccc2C1=O` the Activity (Aorta [1]) was “inactive” and the Activity (Aorta [2]) was “inactive”.

From ChEMBL document CHEMBL1221319, “Synthesis and biological evaluation of vitamin K derivatives as angiogenesis inhibitor” (Bioorg Med Chem, 2010)
